Measured values as given in PMC4216204 (Journal of Medicinal Chemistry, 2014).

What was measured:
[1] = system: CRL-2351 breast cancer cells; test: Sulforhodamine B; type: cell-based; settings: Homo sapiens, 120 h, read-out: SRB assay IC50 CRL-2351
xenograft tumor = settings: mouse model of human cancer; cited from earlier work
AML progenitors = settings: ref 23 (Tamburini et al.); cited from earlier work

IC50 [1] [µM]	Structure (SMILES)	inhibition of xenograft tumor growth (xenograft tumor)	clonogenic growth of AML progenitors (AML progenitors)
> 20	COc1cc2c(cc1OC)-c1nc(N/N=C(/Cc3ccccc3[N+](=O)[O-])C(=O)O)sc1CO2 [(Z)-46a, 2-(2-(7,8-Dimethoxy-4H-chromeno[4,3-d]thiazol-2-yl)hydrazono)-3-(2-nitrophenyl)propanoic Acid]		
> 20	COc1cc2c(cc1OC)-c1nc(N/N=C(/Cc3ccccc3[N+](=O)[O-])C(=O)O)sc1CC2 [(Z)-46c, 2-(2-(7,8-Dimethoxy-4,5-dihydronaphtho[1,2-d]thiazol-2-yl)hydrazono)-3-(2-nitrophenyl)propanoic Acid]		
> 20	COc1cc2c(cc1OC)-c1nc(N/N=C(\Cc3ccccc3[N+](=O)[O-])C(=O)O)sc1CO2 [(E)-46a, 2-(2-(7,8-Dimethoxy-4H-chromeno[4,3-d]thiazol-2-yl)hydrazono)-3-(2-nitrophenyl)propanoic Acid]		
	O=C(O)C(Cc1ccccc1[N+](=O)[O-])=NNc1nc(-c2ccc(Cl)c(Cl)c2)cs1 [compound 1, (2-(2-(4-(3,4-dichlorophenyl)thiazol-2-yl)hydrazono)-3-(2-nitrophenyl)propanoic acid)]	effectively inhibits xenograft tumor growth	dramatically reduces the clonogenic growth of AML progenitors
> 20	COc1ccc2c(c1OC)OCc1sc(N/N=C(\Cc3ccccc3[N+](=O)[O-])C(=O)O)nc1-2 [(E)-46b, 2-(2-(6,7-Dimethoxy-4H-chromeno[4,3-d]thiazol-2-yl)hydrazono)-3-(2-nitrophenyl)propanoic Acid]		
> 20	COc1cc2c(cc1OC)-c1nc(N/N=C(\Cc3ccccc3[N+](=O)[O-])C(=O)O)sc1CC2 [(E)-46c, 2-(2-(7,8-Dimethoxy-4,5-dihydronaphtho[1,2-d]thiazol-2-yl)hydrazono)-3-(2-nitrophenyl)propanoic Acid]		
> 20	COc1ccc2c(c1OC)OCc1sc(N/N=C(/Cc3ccccc3[N+](=O)[O-])C(=O)O)nc1-2 [(Z)-46b, 2-(2-(6,7-Dimethoxy-4H-chromeno[4,3-d]thiazol-2-yl)hydrazono)-3-(2-nitrophenyl)propanoic Acid]		
